Measurements as given in patent US20220380378A1 (ESSA Pharma, Inc., priority 2021, published 2022).

Target: T1, androgen receptor (AR) (Homo sapiens, UniProt P10275, T878A)
T1 sequence (P10275 1-920 T878A): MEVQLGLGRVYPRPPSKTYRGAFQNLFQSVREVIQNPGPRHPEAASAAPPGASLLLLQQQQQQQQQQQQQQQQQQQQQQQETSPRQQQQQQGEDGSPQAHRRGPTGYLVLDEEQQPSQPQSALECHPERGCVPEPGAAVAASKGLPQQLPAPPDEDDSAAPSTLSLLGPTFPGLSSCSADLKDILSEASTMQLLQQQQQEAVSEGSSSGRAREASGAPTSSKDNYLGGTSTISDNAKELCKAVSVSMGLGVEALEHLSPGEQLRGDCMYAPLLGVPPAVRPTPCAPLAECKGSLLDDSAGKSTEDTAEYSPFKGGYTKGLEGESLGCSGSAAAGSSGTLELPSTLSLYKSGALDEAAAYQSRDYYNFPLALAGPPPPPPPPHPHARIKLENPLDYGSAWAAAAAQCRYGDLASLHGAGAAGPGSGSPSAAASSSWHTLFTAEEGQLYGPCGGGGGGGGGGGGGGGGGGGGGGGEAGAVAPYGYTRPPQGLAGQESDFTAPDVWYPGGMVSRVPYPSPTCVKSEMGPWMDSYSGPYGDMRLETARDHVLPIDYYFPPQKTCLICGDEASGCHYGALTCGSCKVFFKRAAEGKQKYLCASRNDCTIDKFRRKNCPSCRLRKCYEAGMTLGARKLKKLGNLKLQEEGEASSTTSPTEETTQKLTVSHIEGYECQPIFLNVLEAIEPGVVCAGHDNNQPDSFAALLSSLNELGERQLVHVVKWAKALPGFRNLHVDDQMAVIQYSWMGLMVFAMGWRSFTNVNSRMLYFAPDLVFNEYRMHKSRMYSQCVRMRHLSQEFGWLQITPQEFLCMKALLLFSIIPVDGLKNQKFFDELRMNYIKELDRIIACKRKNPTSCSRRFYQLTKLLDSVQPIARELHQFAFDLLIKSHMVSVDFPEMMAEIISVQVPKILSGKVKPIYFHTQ
Experiment: Androgen-induced PSA (6.1 kb)-luciferase reporter assay in LNCaP cells (R1881 1 nM)
Format: cell-based
Parameters: endogenous in cells; host or cells: LNCaP
Conditions: 24 h, read-out: PSA-Luc IC50 Range
Experimental: The PSA (6.1 kb)-luciferase reporter contains functional AREs (androgen response elements) to which AR binds in response to androgen to induce luciferase activity. LNCaP cells were transiently transfected with the PSA (6.1 kb)-luciferase reporter for 24 h, and then pretreated with vehicle (DMSO) or indicated concentration of representative compounds for one hour prior to the addition of synthetic androgen, R1881 (1 nM). After 24 h of incubation with R1881, the cells were harvested, and relative luciferase activities were determined (FIG. 1). To determine the IC50, treatments were normalized to vehicle control activity induced by R1881 (Table 2).
Luciferase Assay: Cells were lysed using Passive Lysis Buffer (Promega) and then collected into V-bottom 96-well tissue culture plates. Lysates were centrifuged at 4° C. for 5 minutes at 3000 rpm. To measure luminescence of LNCaP cell lysates the Firefly Luciferase Assay System (Promega) was employed, according to manufacturer's protocol. Relative luminescence units (RLU) in cell lysates were detected for 10 seconds using Promega GloMax-Multi Detection Luminometer (Promega). Values were normalized to protein content. GraphPad Prism graphing software was used to calculate IC50 values.
Statistical analyses were performed using GraphPad Prism (Version 6.01 for Windows; La Jolla, Calif., USA). Comparisons between treatment and control groups were compared using Two-Way ANOVA with post-hoc Dunnett's and Tukey's tests. Differences were considered statistically significant at P values less than 0.05.

| IC50 [nM] | Compound |
| --- | --- |
| < 500 | CS(=O)(=O)Nc1nccc(COc2ccc3c(c2)CC[C@@H]3c2cc(Cl)c(OCCCl)c(C#N)c2)n1 [A35(R)] |
| 500 to 2000 | CS(=O)(=O)Nc1nccc(COc2ccc3c(c2)CC[C@H]3c2cc(Cl)c(OCCCl)c(C#N)c2)n1 [A35(S)] |
| > 2000 | CC(C)(c1ccc(OCc2ccnc(NS(C)(=O)=O)n2)cc1)c1cc(Cl)c(-c2cccc(Cl)c2)c(C#N)c1 [Compound A1] |
| > 2000 | CC(C)(c1ccc(OCc2ccnc(NS(C)(=O)=O)n2)cc1)c1cc(Cl)c(-c2ccc(Cl)cc2)c(C#N)c1 [Compound A2, N-(4-((4-(2-(2,4′-dichloro-6-cyano-[1,1′-biphenyl]-4-yl)propan-2-yl)phenoxy)methyl)pyrimidin-2-yl)methanesulfonamide] |
| > 2000 | CS(=O)(=O)Nc1ncc(COc2ccc3c(ccn3-c3cc(Cl)c(OCCCl)c(C#N)c3)c2)c(N)n1 [Compound A10] |
| > 2000 | CS(=O)(=O)Nc1nccc(COc2ccc3c(-c4cc(Cl)c(OCCCl)c(C#N)c4)ncnc3c2)n1 [Compound A18] |
| 500 to 2000 | N#Cc1cc(-n2ccc3cc(OCc4coc(S(N)(=O)=O)c4)ccc32)cc(Cl)c1OCCCl [Compound A20] |
| 500 to 2000 | CS(=O)(=O)Nc1nccc(COc2ccc3c(ccn3-c3cc(C#N)c(OCCCl)c(C(F)(F)F)c3)c2)n1 [Compound A21] |
| > 2000 | CS(=O)(=O)Nc1nccc(COc2ccc3c(ccn3-c3cc(Cl)c(OCC(Cl)(Cl)Cl)c(C#N)c3)c2)n1 [Compound A22] |
| 500 to 2000 | CC(C)(c1ccc(OCc2ccnc(NS(C)(=O)=O)n2)cc1)c1cc(C#N)c2ccc(Cl)cc2c1 [Compound A25] |
| > 2000 | CS(=O)(=O)Nc1nccc(COc2ccc(-n3ccc4c(Cl)c(OCCCl)c(C#N)cc43)cc2)n1 [Compound A26] |
| 500 to 2000 | CS(=O)(=O)Nc1nccc(COc2ccc(-n3ccc4c(C#N)c(OCCCl)c(Cl)cc43)cc2)n1 [Compound A27] |
| 500 to 2000 | CS(=O)(=O)Nc1nccc(COc2ccc3c(c2)OCCN3c2cc(Cl)c(OCCCl)c(C#N)c2)n1 [Compound A28, N-(4-(((4-(3-chloro-4-(2-chloroethoxy)-5-cyanophenyl)-3,4-dihydro-2H-benzo[b][1,4]oxazin-7-yl)oxy)methyl)pyrimidin-2-yl)methanesulfonamide] |
| 500 to 2000 | CS(=O)(=O)Nc1ncc(COc2ccc3c(ccn3-c3cc(Cl)c(OCCCl)c(C#N)c3)c2)cn1 [Compound A29, N-(5-(((1-(3-chloro-4-(2-chloroethoxy)-5-cyanophenyl)-1H-indol-5-yl)oxy)methyl)pyrimidin-2-yl)methanesulfonamide] |
| > 2000 | CS(=O)(=O)Nc1nccc(COc2ccc3c(c2)CCN3c2cc(Cl)c(OCCCl)c(C#N)c2)n1 [Compound A30, N-(4-(((1-(3-chloro-4-(2-chloroethoxy)-5-cyanophenyl)indolin-5-yl)oxy)methyl)pyrimidin-2-yl)methanesulfonamide] |
| > 2000 | CS(=O)(=O)Nc1nccc(COc2ccc3c(c2)C(c2cc(Cl)c(OCCCl)c(C#N)c2)CC3)n1 (stereo not drawn) [Compound A31, N-(4-(((3-(3-chloro-4-(2-chloroethoxy)-5-cyanophenyl)-2,3-dihydro-1H-inden-5-yl)oxy)methyl)pyrimidin-2-yl)methanesulfonamide] |
| > 2000 | CS(=O)(=O)Nc1nccc(COc2ccc3c(c2)nnn3-c2cc(Cl)c(OCCCl)c(C#N)c2)n1 [Compound A40] |
| < 500 | CC(C)(c1ccc(OCc2ncc(NS(C)(=O)=O)nc2N)cc1)c1cc(Cl)c(OCCCl)c(C#N)c1 [Compound A43] |
| 500 to 2000 | CC(C)(c1ccc(OCc2cccc(S(C)(=O)=O)c2)cc1)c1cc(Cl)c(OCCCl)c(C#N)c1 [Compound A47] |
| 500 to 2000 | CC(C)(c1ccc(OCc2cncc(NS(C)(=O)=O)c2)cc1)c1cc(Cl)c(OCCCl)c(C#N)c1 [Compound A49] |
| 500 to 2000 | CC(C)(c1ccc(OCc2cccc(S(N)(=O)=O)c2)cc1)c1cc(Cl)c(OCCCl)c(C#N)c1 [Compound A50] |
| 500 to 2000 | CS(=O)(=O)n1cc(COc2ccc3c(ccn3-c3cc(Cl)c(OCCCl)c(C#N)c3)c2)cn1 [Compound A52] |
| 500 to 2000 | N#Cc1cc(-n2ccc3cc(OCc4c[nH]nn4)ccc32)cc(Cl)c1OCCCl [Compound A54] |
| > 2000 | CS(=O)(=O)N1CCC(COc2ccc3c(ccn3-c3cc(Cl)c(OCCCl)c(C#N)c3)c2)CC1 [Compound A55] |

| IC50 [nM] | Compound |
| --- | --- |
| 500 to 2000 | CS(=O)(=O)N1CCCC(COc2ccc3c(ccn3-c3cc(Cl)c(OCCCl)c(C#N)c3)c2)C1 (stereo not drawn) [Compound A56] |
| > 2000 | CS(=O)(=O)N[C@H]1CC[C@H](COc2ccc3c(ccn3-c3cc(Cl)c(OCCCl)c(C#N)c3)c2)CC1 [Compound A58] |
| > 2000 | CS(=O)(=O)Nc1nccc(COc2ccc3c(cnn3-c3cc(Cl)c(OCCCl)c(C#N)c3)c2)n1 [Compound A60] |
| < 500 | CS(=O)(=O)Nc1nccc(COc2ccc3c(-c4cc(Cl)c(OCCCl)c(C#N)c4)csc3c2)n1 [Compound A61] |
| > 2000 | CS(=O)(=O)Nc1nccc(COc2ccc3c(-c4cc(Cl)c(OCCCl)c(C#N)c4)cnn3c2)n1 [Compound A64] |
| > 2000 | CC(C)CNc1ncc(C(C)(C)c2ccc(OCc3ccnc(NS(C)(=O)=O)n3)cc2)cc1Cl [Compound A67] |
| 500 to 2000 | CS(=O)(=O)Nc1nccc(COc2ccc3c(ccn3-c3cc(Cl)c(OCC(F)(F)F)c(C#N)c3)c2)n1 [Compound A70] |
| > 2000 | CC(C)COc1c(Cl)cc(-n2ccc3cc(OCc4ccnc(NS(C)(=O)=O)n4)ccc32)cc1C#N [Compound A71] |
| > 2000 | CS(=O)(=O)CCOc1c(Cl)cc(-n2ccc3cc(OCc4ccnc(NS(C)(=O)=O)n4)ccc32)cc1C#N [Compound A72] |
| > 2000 | CS(=O)(=O)Nc1nccc(COc2ccc3c(ccn3-c3cc(Cl)c(OCC4COC4)c(C#N)c3)c2)n1 [Compound A73] |
| 500 to 2000 | COCc1c(F)cc(-n2ccc3cc(OCc4ccnc(NS(C)(=O)=O)n4)ccc32)cc1Cl [Compound A74] |
| > 2000 | CS(=O)(=O)Nc1nccc(COc2ccc(-n3ccc4c(C#N)c(OCCCl)c(C#N)cc43)cc2)n1 [Compound A75] |
| < 500 | CC(=O)Nc1cnc(COc2ccc(C(C)(C)c3cc(Cl)c(OCCCl)c(C#N)c3)cc2)c(NS(C)(=O)=O)n1 [Compound A76] |
| > 2000 | Cn1nc(-c2cc(Cl)c(OCCCl)c(C#N)c2)c2ccc(OCc3ccnc(NS(C)(=O)=O)n3)cc21 [Compound A77] |
| > 2000 | CS(=O)(=O)Nc1cc(NCc2ccc3c(ccn3-c3cc(Cl)c(OCCCl)c(C#N)c3)c2)ccn1 [Compound A78] |
| > 2000 | CS(=O)(=O)Nc1ccn(CCc2ccc3c(ccn3-c3cc(Cl)c(OCCCl)c(C#N)c3)c2)c(=O)c1 [Compound A81] |
| > 2000 | CS(=O)(=O)Nc1cnn(CCc2ccc3c(ccn3-c3cc(Cl)c(OCCCl)c(C#N)c3)c2)c1 [Compound A84] |
| > 2000 | CS(=O)(=O)Nc1nccc(COc2ccc3c(c2)COC3c2cc(Cl)c(OCCCl)c(C#N)c2)n1 (stereo not drawn) [Compound A85] |
| > 2000 | CC(CO)(c1ccc(OCc2ccnc(NS(C)(=O)=O)n2)cc1)c1cc(Cl)c(OCCCl)c(C#N)c1 (stereo not drawn) [Compound A89] |
| 500 to 2000 | CC(C)(c1ccc(OCc2ccnc(NS(C)(=O)=O)n2)cc1)c1cc(Cl)c(N2CCC(CO)CC2)c(C#N)c1 [Compound A90] |
| 500 to 2000 | Cc1nc(NS(C)(=O)=O)ncc1COc1ccc(C(C)(C)c2cc(Cl)c(OCCCl)c(C#N)c2)cc1 [Compound A91] |
| 500 to 2000 | Cn1nc(NS(C)(=O)=O)cc1COc1ccc(C(C)(C)c2cc(Cl)c(OCCCl)c(C#N)c2)cc1 [Compound A93] |
| 500 to 2000 | CC(C)(c1ccc(OCc2cncnc2N)cc1)c1cc(Cl)c(OCCCl)c(C#N)c1 [Compound A94] |

| Compound | IC50 [nM] |
| --- | --- |
| CC(C)(c1ccc(OCc2ccnc(NS(C)(=O)=O)n2)cc1)c1cc(Cl)c(NCCCl)c(C#N)c1 [Compound A66] | 500 to 2000 |
